Data as given in ChEMBL document CHEMBL1201862, “PubChem BioAssay data set” (2004).
Active and inactive are the calls of the source.

Assays:
[1] = tested on: Streptococcus sp. 'group A'; test: Streptococcus pyogenes SK(-)GAS viability under kanamycin – luminescence, BacTiterGlo, confirmation, counter-screen for streptokinase expression inhibitor project, dose response (AID 1900); assay type: functional, organism-based
[2] = viability of PTEN-deleted HCT116 cells – cell-based, HCT116 PTEN knockout, dose response (AID 1047); assay type: functional;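 also: HCT116 colon tumor cells with PTEN knocked out; cells exposed to compound for 60 hours before readout; potency for loss of cell viability measured by luminescence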
[3] = target: T1, Heat shock factor protein 1 (Mus musculus, UniProt P38532); test: decrease of HSF1-responsive luciferase luminescence – cell-based, NIH3T3, dose retest, confirmation (AID 2382); assay type: functional;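 also: NIH3T3 fibroblasts with HSF1-driven luciferase reporter stressed by proteasome inhibitor MG132; luminescence from HSF1-driven luciferase expression after 8 hours of MG132 stress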
T1 sequence (P38532 whole entry): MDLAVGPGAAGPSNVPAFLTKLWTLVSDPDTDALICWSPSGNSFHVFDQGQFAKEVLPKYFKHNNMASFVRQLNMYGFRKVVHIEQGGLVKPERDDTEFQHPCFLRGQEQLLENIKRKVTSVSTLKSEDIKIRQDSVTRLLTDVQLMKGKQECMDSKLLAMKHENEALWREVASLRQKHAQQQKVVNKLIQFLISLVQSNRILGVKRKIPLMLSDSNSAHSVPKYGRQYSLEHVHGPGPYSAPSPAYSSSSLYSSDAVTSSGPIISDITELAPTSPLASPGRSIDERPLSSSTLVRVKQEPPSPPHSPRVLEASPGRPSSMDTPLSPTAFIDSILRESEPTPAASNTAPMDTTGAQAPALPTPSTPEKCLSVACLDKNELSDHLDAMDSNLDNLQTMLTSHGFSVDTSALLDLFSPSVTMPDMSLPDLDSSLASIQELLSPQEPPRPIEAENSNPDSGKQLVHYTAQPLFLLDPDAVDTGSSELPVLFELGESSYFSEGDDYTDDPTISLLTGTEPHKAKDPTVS

INS1 = test: INS-1E survival protection against cytokine death – cell-based, luminescence, retest, dose response (AID 449756); assay type: functional; settings: Rattus norvegicus;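 also: cell death triggered by IL-1 beta plus TNF-alpha plus IFN-gamma mixture; protective hits raise ATP signal compared with cytokine alone wells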
[4] = decrease of insulin promoter-GFP reporter – imaging, high-content screening, mouse beta cells (AID 1628); assay type: functional; settings: MIN6
Streptococcus = test: GAS UMAA2166 growth inhibition – luminescence, BacTiterGlo, counter-screen for streptokinase expression inhibitor project, dose response (AID 1915); assay type: functional, organism-based;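 also: potency for reduction of bacterial viability or growth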
Protein RecA = target: T2, Protein RecA (Mycobacterium tuberculosis, UniProt P9WHJ3); test: Fluorescence Cell-Free Homogeneous Dose Retest to Identify Inhibitors of RecA-Intein Splicing Activity. [Related pubchem assays (depositor defined):AID2097, AID2223, AID489010, AID492950]; assay type: functional
T2 sequence (P9WHJ3 whole entry): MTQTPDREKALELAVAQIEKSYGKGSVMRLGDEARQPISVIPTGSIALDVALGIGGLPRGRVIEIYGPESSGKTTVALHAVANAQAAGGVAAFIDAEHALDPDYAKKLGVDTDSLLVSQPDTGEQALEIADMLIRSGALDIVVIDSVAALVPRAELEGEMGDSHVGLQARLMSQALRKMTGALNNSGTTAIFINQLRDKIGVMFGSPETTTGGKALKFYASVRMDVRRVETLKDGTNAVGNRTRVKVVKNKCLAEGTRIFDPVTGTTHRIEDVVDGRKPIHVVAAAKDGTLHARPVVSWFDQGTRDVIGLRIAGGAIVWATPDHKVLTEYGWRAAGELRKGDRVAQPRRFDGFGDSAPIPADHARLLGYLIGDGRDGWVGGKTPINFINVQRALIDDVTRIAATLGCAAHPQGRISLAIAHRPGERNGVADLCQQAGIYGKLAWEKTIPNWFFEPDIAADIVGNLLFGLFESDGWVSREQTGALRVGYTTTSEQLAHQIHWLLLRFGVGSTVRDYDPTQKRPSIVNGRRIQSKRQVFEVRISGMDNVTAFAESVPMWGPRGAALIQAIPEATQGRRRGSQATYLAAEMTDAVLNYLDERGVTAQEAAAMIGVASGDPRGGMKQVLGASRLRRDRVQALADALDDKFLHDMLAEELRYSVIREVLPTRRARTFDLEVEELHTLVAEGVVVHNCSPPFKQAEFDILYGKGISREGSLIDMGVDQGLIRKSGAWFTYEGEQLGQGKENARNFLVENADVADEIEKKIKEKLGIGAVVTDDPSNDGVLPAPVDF

[5] = MIN6 cell viability loss – mouse insulinoma, cytotoxicity control, dose response (AID 2122); assay type: functional;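 also: confirmatory high-throughput counterscreen run to flag cytotoxic compounds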

COc1ccc(C(=O)c2c(C(F)(F)F)oc3c2C(=O)c2ccccc2C3=O)cc1
active: EC50 [1] 2260 nM | EC50 [2] 2810 nM | EC50 [3] 2670 nM | AC50 (INS1) 1380 nM | IC50 [4] 3050 nM | EC50 (Streptococcus) 4920 nM | EC50 (Protein RecA) 82.5 nM | IC50 [5] 2390 nM
